Laboratory results as given in patent US6617158B1, “Method for stimulating the production of fetal hemoglobin producing erythroid cells” (New England Medical Center, priority 1999, dated 2003).

Legend:
Assay type in all cases: cell-based, human
[1] = test system: F+ cells (HbF-containing nucleated red cells) in cultures of mononuclear cells from adult blood; assay: Erythroid culture of adult blood mononuclear cells; proportions of F+ cells by two-color flow cytometry
[2] = test system: F+ cells (HbF-containing nucleated red cells) in cultures of mononuclear cells from adult blood; assay: as above; remark: listed apart in the source
Procedure: (§1) Cells are fixed with 5% formaldehyde in PBS at 37° C. for 1 h, exposed to 100% methanol for 5 min at room temperature, then permeabilized in Solution B of the Caltag Fix & Perm kit during incubation with phycoerythrin-conjugated antibodies to the gamma chain of hemoglobin (HbF) (Cortex) and fluorescein isothiocyanate-conjugated antibodies to the beta chain of hemoglobin (HbA) or to fluorescein isothiocyanate-conjugated antibodies specific for sickle cell hemoglobin (HbS) (Isolabs). After incubation, cells are washed and suspended in PBS with 1% formaldehyde and 0.1 μg/ml Hoechst 33342.
(§2) Cells are processed in a Becton-Dickinson Vantage flow cytometer/cell sorter with dual laser excitation (UV and 488 nm). Intact nucleated cells are selected by gating on UV-excited Hoechst […] fluorescence (430 nm) which yielded DNA histograms as well as cell cycle information by BudR-induced fluorescence quenching. Bohmer, Cell Tissue Kinet. 12: 101-110 (1979). Phycoerythrin (PE) and Fluorescein isothiocyanate (FITC) are excited at 488 nm and measured at 530 nm and 575 nm, […]. Correlated fluorescence values are recorded with appropriate color compensation. The accuracy of color compensation over 4 logs of fluorescence values is limited. To obtain absolute cell counts from the relative particle counts that a flow cytometer provides, known amounts of fluorescent plastic beads (Coulter Immunobrite Level IV) are added to the cell suspensions. Bohmer, Cell Tissue Kinet. 17: 593-600 (1984).
Blood samples were kept at room temperature and processed as soon as possible (between 2 h and 24 h) after collection. The blood was diluted 1:4 with phosphate buffered saline (PBS), the mononuclear cells isolated by density gradient (density 1.077), washed in PBS with 1% BSA (bovine serum albumin) and cultured without further processing in standard 6-well plates, 3-5 ml per well, at a maximum density of 0.3 million/ml. The standard medium (referred to as “control” medium) comprised a mixture of 2/3 Iscoves MDM and 1/3 RPMI1640, containing methylcellulose (0.9%), C—CHS (1%), EPO (1 U/ml), SCF (20 ng/ml), IL3 (10 ng/ml), insulin (3 μg/ml), iron-saturated transferring (70 μg/ml), mercaptoethanol ([…]). Cytokines were from R&D Systems, Minneapolis, Minn. or Genzyme, Cambridge, Mass.
A relatively brief exposure to TGF-beta during the first few days of cell culture caused a lasting shift towards HbF expression with no reduction in subsequent clonal expansion (see data below). […]
The effect of TGF-beta treatment on cell cultures was examined and compared to the effect of serum. […] On day 7, cultures containing hundreds of colonies were turned into single-cell suspensions and the correlated contents of HbA and HbF measured by flow cytometry (FIG. 1). […]

[3] = test system: F+ and F-A+ cells in cultures of mononuclear cells from adult blood; assay: Absolute numbers of F+ and F-A+ cells per culture and long-term proliferation
Procedure: FIG. 5A is an example of a time course from one experiment. Cultures were treated with TGF-beta for 4 days, then propagated without TGF-beta, with further subcultivation and dilution on days 7 (1:10), 10 (1:5) and 13 (1:5). Absolute numbers of F+ and F−A+ cells per culture were determined on days 7, 10, 13 and 16. Total cell numbers were calculated using preceding culture dilution factors in the following manner: at each time of analysis, some of the cells were removed for counting, those that go back into the culture after counting are seeded with a dilution of fresh medium, to avoid medium exhaustion. Therefore, the actual numbers in the plates increase only between seeding and harvest. To calculate cell production over the whole culture time, it is necessary to multiply the counted cell numbers in the plates with all previous culture dilution factors. Closed symbols depict data from F−A+ cells, open symbols show F+ cells, and triangles show TGF-beta-treated cultures, while circles show the controls.
FIG. 5B is a graph indicating the TGF-beta-induced change of total F+ and F− cell numbers, shown as ratio of N(TGF)/N(CON). Cultures were treated with TGF-beta for 4 days., then propagated without TGF-beta, with further subcultivation and dilution on days 7 (1:10), 10 (1:5) and 13 (1:5). Absolute numbers of F+ and F−A+ cells per culture were determined on days 7, 10, 13 and 16. Individual experiments are distinguished by different symbols. […] Median values are indicated by horizontal bar.
as §2
Cultures that were treated with TGF-beta from day 0-4 were sub-cultivated again on days 7, 10 and 13, and the total numbers of F+ and F−A+ cells per culture were determined on days 7, 10, 13 and 16. […] Between day 7 and 10, both cell types in both cultures proliferated at approximately the same rate. After day 10, in control cultures, the proliferation decreased strongly and equally for both F+ and F−A+ cells, maintaining the ratio. No secondary colonies were seen following the subcultivation on day 13. In contrast, the proliferation in TGF-beta-treated cultures continued for much longer for both F+ and F−A+ cells. The F−A+ cell numbers were gradually reducing the gap with F+ cells, in agreement with the gradually decreasing proportions of F+ cells shown in FIG. 4. The number of days for which the proliferation of TGF-beta-treated cultures could be maintained was highly variable between donors and appeared to correlate with the initial numbers of clonogenic cells per ml of blood. […]

[4] = test system: secondary erythroid colonies; assay: Secondary erythroid colony counts after re-seeding (cell cycle effect); conditions: first few days of treatment
Procedure: Cell cultures were seeded in the presence (TGF) and absence (CON) of TGF-beta and on days 1, 2, 3 and 4 washed and re-seeded in the absence of TGF-beta. On day 9, the secondary colonies/clusters were counted and plotted as a function of the number of the day of treatment before reseeding. […] Statistics from 5 experiments are shown.
To test the cell cycle effect of TGF-beta during the first 4 days of treatment, the numbers of secondary erythroid colonies that developed upon re-seeding the cultures after different duration of TGF-beta exposure were counted (FIG. 7). A decrease in the number of secondary colonies upon re-seeding would reflect a decrease in the number of divisions undergone by colony forming cells before the cultures were re-seeded as a single-cell suspension. However, the secondary colonies became smaller and more numerous, without much effect of TGF-beta. The numbers of secondary colonies began to increase between day 1 and 2, equally in TGF-beta and controls. Between days 3 and 4 the beginnings of inhibition by TGF-beta could be seen.

[5] = test system: Mononuclear cells from one sickle cell patient; assay: Sickle cell erythropoiesis culture; HbF vs HbS flow cytometry profiles; conditions: continuous culture in 30% FCS or 10 ng/ml TGF-beta, day 7
Procedure: as §1
Mononuclear cells from one sickle cell patient were continuously cultured in 30% FCS or 10 ng/ml TGF-beta. The cells were labeled with the same antibodies to HbF but with antibodies specific for HbS instead of HbA.

In the case of “TGF-beta 3: form of transforming growth factor beta titrated against TGF-beta 1”, the “relative potency to increase proportions of F+ cells” value ([1]; titration, treatment began day 2, re-seeded day 4, F+ on day 7) is reported as “in between TGF-beta 1 and TGF-beta 2”.

For “TGF-beta: recombinant human transforming growth factor beta-1”, the “effect on proportions of F+ cells” value ([2]; 10 ng/ml, exposure day 0-4 or continuous, analysis day 7) was “increased the proportions of F+ cells dramatically”, the “increased proportions of F+ cells during further culture growth” value ([2]; 4-day treatment, then control medium, re-seeded days 7 and 10) was “maintained” and the “proportions of F+ cells, plateau” value ([2]; as function of exposure time (0-4 days), analysed day 7, 30% FCS or TGF-beta) was 80%. For the same molecule, the total cell counts ([2]; continuous treatment up to day 7 (not the 4-day treatment)) was “strongly reduced total cell counts”, the “N(TGF)/N(CON) of F+ cells” value ([3]; 2 (out of 5) experiments, proliferating beyond 3 weeks) was “exceeding 100” and the “total numbers of F-A+ cells versus control cultures” value ([3]; between days 7 and 10, treatment day 0-4) was “dramatically reduced”. For the same molecule, the “reduction of F-A+ cell numbers” value ([3]; day 7, treatment day 0-4) was “ca. 10 fold”, the “F+ cell numbers, ratio N(TGF)/N(CON)” value ([3]; day 7, treatment day 0-4, median) was 1 and the “F+ population level versus controls” value ([3]; on average, with increasing culture time, treatment day 0-4) was “ca. 10 fold”. For the same molecule, the “effect on cytokine-dependent proliferation (secondary colony numbers)” value [4] was “did not interfere with cytokine-dependent proliferation”, the “relative F+ cell numbers” value [5] was “increase in relative F+ cell numbers” and the “growth of newly developing secondary colonies” value ([1]; added from day 7, after approximately 2 days of treatment, 8-16-cell stage) was “complete and lasting growth arrest”. For the same molecule, the “effect on F+ proportions when added at later culture phase” value ([1]; newly supplied beginning on day 7) was “no effect on F+ proportions” and the “proportions of F+ cells after exposure for only one day” value ([1]; one day exposure between days 2 and 4) was “substantially increased”.

B1: TGF-beta 2: form of transforming growth factor beta titrated against TGF-beta 1 (protein, UniProt P61812 303-414, looked up)
Transforming growth factor …: ALDAAYCFRNVQDNCCLRPLYIDFKRDLGWKWIHEPKGYNANFCAGACPYLWSSDTQHSRVLSLYNTINPEASASPCCVSQDLEPLTILYYIGKTPKIEQLSNMIVKSCKCS
modifications: Transforming growth factor beta-2
For B1, the “relative effectiveness versus TGF-beta 1 to increase proportions of F+ cells” value ([1]; titration, treatment began day 2, re-seeded day 4, F+ on day 7, average of two experiments) was ~100 times.
